Bounds are passed on as bounds.

Data set [1] deals with T1, human GR (glucocorticoid receptor) (Homo sapiens, UniProt P04150).
T1 construct: expressed in transfected cells; host or cells: 293 cells
T1 sequence (P04150 1-777): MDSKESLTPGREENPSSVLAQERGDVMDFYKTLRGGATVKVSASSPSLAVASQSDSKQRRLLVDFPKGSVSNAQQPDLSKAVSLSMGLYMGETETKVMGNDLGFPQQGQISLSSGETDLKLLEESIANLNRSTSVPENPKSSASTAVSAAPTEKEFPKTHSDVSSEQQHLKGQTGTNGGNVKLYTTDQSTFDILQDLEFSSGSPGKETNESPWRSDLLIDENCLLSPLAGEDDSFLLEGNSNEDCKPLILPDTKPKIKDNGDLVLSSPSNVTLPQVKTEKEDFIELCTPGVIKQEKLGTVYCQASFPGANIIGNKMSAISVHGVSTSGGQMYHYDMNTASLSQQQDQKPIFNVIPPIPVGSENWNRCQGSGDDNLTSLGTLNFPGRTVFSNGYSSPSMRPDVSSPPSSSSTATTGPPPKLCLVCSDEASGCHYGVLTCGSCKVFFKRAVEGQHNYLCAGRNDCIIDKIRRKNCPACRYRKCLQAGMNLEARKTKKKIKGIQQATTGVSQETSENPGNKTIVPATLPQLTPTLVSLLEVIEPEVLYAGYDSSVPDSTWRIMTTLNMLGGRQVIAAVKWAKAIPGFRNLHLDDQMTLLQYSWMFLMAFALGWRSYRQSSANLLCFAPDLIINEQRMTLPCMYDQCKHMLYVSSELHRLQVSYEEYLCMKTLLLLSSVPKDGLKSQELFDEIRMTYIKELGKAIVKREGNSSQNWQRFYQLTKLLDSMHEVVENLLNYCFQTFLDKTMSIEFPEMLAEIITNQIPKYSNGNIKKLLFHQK
Description: Alternative Binding Assay Protocol (Method 2), 293-GR lysate, 3H-dexamethasone competition. The note with it: 0.3 nM 3H-dexamethasone. On the procedure: Alternative Binding Assay Protocol for MR, GR, AR, and PR (Method 2):
Cell lysates from 293 cells overexpressing human GR (glucocorticoid receptor), AR (androgen receptor), MR (mineralocorticoid receptor) or PR (progesterone-receptor) are used for competition binding assays to determine Ki values for test compounds. […] Competing compounds are added at various concentraions in half-log increments. Non-specific binding is determined in the presence of 500 nM dexamethasone for GR binding, 500 nM aldosterone for MR binding, or 500 nM methyltrienolone for AR and PR binding. The binding reaction (140 μl) is incubated for overnight at 4° C., then 70 μl of cold charcoal-dextran buffer (containing per 50 ml of assay buffer, 0.75 g of charcoal and 0.25 g of dextran) is added to each reaction. Plates are mixed 8 minutes on an orbital shaker at 4° C. Plates are then centrifuged at 3,000 rpm at 4° C. for 10 minutes. An aliquot of 120 μl of the mix is transferred to another 96-well plate and 175 μl of Wallac Optiphase “Hisafe 3” scintillation fluid is added to each well. Plates are sealed and shaken vigorously on an orbital shaker. After an incubation of 2 hrs, plates are read in a Wallac Microbeta counter. […] The Kd for ^3H-dexamethasone for GR binding, ^3H-methyltrienolone for AR binding, ^3H-aldosterone for MR binding, or ^3H-methyltrienolone for PR binding, is determined by saturation binding. The IC50 values for compounds are converted to Ki using Cheng-Prusoff equation and the Kd determined by saturation binding assay.

A further data set concerns the target T2, human MR (Homo sapiens, UniProt P08235).
T2 construct: The full length human MR gene is cloned from a human kidney or human brain cDNA library; inferred from own knowledge of the pAcHLT vector (N); made in house; host or cells: Sf9 insect cells (baculovirus)
T2 sequence (P08235 1-984): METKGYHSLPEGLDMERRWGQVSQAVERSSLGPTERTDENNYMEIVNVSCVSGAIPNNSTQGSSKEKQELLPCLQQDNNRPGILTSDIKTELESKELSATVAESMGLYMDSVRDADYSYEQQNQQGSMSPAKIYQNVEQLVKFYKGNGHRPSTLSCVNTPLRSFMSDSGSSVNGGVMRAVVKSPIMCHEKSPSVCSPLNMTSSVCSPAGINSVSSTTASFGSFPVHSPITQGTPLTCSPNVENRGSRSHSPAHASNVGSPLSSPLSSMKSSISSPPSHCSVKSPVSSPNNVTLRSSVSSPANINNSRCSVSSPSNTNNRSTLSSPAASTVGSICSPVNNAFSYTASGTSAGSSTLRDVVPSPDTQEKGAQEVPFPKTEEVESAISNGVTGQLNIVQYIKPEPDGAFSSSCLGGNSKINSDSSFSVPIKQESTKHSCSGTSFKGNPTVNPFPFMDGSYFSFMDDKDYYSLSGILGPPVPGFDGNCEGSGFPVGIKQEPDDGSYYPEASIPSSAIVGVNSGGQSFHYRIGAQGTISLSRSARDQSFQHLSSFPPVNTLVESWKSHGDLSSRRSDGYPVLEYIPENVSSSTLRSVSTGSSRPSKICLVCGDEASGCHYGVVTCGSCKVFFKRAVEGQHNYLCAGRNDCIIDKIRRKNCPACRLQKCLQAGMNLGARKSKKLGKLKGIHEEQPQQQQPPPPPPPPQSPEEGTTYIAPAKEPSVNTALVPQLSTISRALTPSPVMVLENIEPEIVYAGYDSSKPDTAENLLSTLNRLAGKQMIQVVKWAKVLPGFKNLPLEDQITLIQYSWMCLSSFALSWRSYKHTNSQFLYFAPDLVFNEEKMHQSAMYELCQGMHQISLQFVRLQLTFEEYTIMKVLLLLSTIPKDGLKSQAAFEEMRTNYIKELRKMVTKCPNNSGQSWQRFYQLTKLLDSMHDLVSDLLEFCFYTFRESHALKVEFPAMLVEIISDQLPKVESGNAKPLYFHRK
The data set is described as follows: Mineralocorticoid Receptor Binding Assay (Method 1), [3H]-aldosterone competition. The note with it: 0.5 nM [3H]-aldosterone, human MR expressed in Sf9 cells. An outline of the steps: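 Full-length human MR expressed in Sf9 cells via baculovirus; lysate supernatant (about 20-25 μg protein) incubated with 0.5 nM [3H]-aldosterone and test compound for about 16 h at 4° C. Buffer was Tris/molybdate/phosphate/pyrophosphate with 10% glycerol, pH 7.5; filter-bound complex counted by scintillation.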

In another data set the target is T3, glucocorticoid receptor (Homo sapiens, UniProt P04150).
T3 construct: containing 50-200 ug of A549 cell extract and 1.86 nM; host or cells: A549 human lung epithelial cells
T3 sequence (P04150 1-777): T1 sequence (P04150 1-777)
The data set is described as follows: Glucocorticoid Receptor Binding Assay (Method 1), [3H]-dexamethasone competition, A549 cell extract. The note with it: 1.86 nM [3H]-dexamethasone, read-out: GR Ki (nM) Method 1. Summed up:
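Receptor source: sonicated extract of human A549 lung epithelial cells in glycerol/Tris-HCl pH 7.2 buffer with sodium molybdate. [3H]-dexamethasone competition run 16 h at 4 °C; unbound radioligand stripped with dextran-coated charcoal (8 min, RT) and receptor-bound radioactivity quantified by scintillation counting.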

Compound `CCC(CC)(c1ccc2nc(C)[nH]c2c1)c1c[nH]c2c(NS(C)(=O)=O)cccc12` [Example 154, N-{3-[1-Ethyl-1-(2-methyl-3H-benzoimidazol-5-yl)-propyl]-1H-indol-7-yl}-methanesulfonamide] showed a melting point of 188 to 192 °C. The compound further showed a Ki in data set [1] of less than 500 nM.

Regarding `CCC(CC)(c1ccc2sccc2c1)c1c[nH]c2c(NS(C)(=O)=O)cccc12` [Example 135, N-[3-(1-Benzo[b]thiophen-5-yl-1-ethyl-propyl)-1H-indol-7-yl]-methanesulfonamide], the melting point is 85 to 95 °C. For the same compound, the Ki at human MR was less than 500 nM. The inhibitory constant (Ki) in data set [1] was less than 500 nM.

`CCC(CC)(c1ccc2sc(Cl)nc2c1)c1c[nH]c2c(NS(C)(=O)=O)cccc12` [Example 161, N-{3-[1-(2-Chloro-benzothiazol-5-yl)-1-ethyl-propyl]-1H-indol-7-yl}-methanesulfonamide] registered a melting point of 217 to 220 °C. The same compound registered a Ki on human MR of less than 500 nM. For the same compound, the inhibition constant Ki in data set [1] is less than 500 nM.

`CCC(CC)(c1ccc2nc(C)oc2c1)c1c[nH]c2c(NS(C)(=O)=O)cccc12` [Example 136, N-{3-[1-Ethyl-1-(2-methyl-benzooxazol-6-yl)-propyl]-1H-indol-7-yl}-methanesulfonamide] displayed a melting point of 98 to 105 °C. This compound also registered an inhibition constant (Ki) on human MR of less than 500 nM. In data set [1], this compound displayed a Ki of less than 1000 nM.

Take `CCC(CC)(c1ccc2[nH]cnc2c1)c1c[nH]c2c(NS(C)(=O)=O)cccc12` [Example 134, N-{3-[1-(1H-Benzoimidazol-5-yl)-1-ethyl-propyl]-1H-indol-7-yl}-methanesulfonamide]: the melting point is 150 to 165 °C. The compound further yielded a Ki on human MR of less than 500 nM. Besides, the Ki in data set [1] was less than 500 nM.

The compound `CCC(CC)(c1ccc2ocnc2c1)c1c[nH]c2c(NS(C)(=O)=O)cccc12` [Example 146, N-[3-(1-Benzooxazol-5-yl-1-ethyl-propyl)-1H-indol-7-yl]-methanesulfonamide] displayed a melting point of 132 to 135 °C. At human MR, this compound gave a Ki of less than 500 nM. The compound also showed an inhibition constant Ki in data set [1] of less than 500 nM.

For `CCC(CC)(c1ccc2nc(Cl)sc2c1)c1c[nH]c2c(NS(C)(=O)=O)cccc12` [Example 148, N-{3-[1-(2-Chloro-benzothiazol-6-yl)-1-ethyl-propyl]-1H-indol-7-yl}-methanesulfonamide], the melting point lay in the range of 180 to 190 °C. In addition, at human MR, the inhibition constant Ki is less than 500 nM. The inhibitory constant (Ki) in data set [1] is less than 500 nM.

On to `CCC(CC)(c1ccc(F)cc1)c1c[nH]c2c(NS(C)(=O)=O)cccc12` [Example 59, N-{3-[1-Ethyl-1-(4-fluoro-phenyl)-propyl]-1H-indol-7-yl}-methanesulfonamide], for which the melting point is 137 to 138 °C. Moreover, at human MR, the inhibition constant (Ki) was less than 500 nM. Moreover, the Ki on glucocorticoid receptor is less than 500 nM.

With `CCC(CC)(c1ccc2[nH]ncc2c1)c1c[nH]c2c(NS(C)(=O)=O)cccc12` [Example 138, N-{3-[1-Ethyl-1-(1H-indazol-5-yl)-propyl]-1H-indol-7-yl}-methanesulfonamide], the melting point was in the range of 123 to 128 °C. Further, the Ki on human MR was less than 500 nM. The compound also displayed a Ki in data set [1] of less than 500 nM.

In the case of `CCC(CC)(c1ccc2sc(N)nc2c1)c1c[nH]c2c(NS(C)(=O)=O)cccc12` [Example 141, N-{3-[1-(2-Amino-benzothiazol-5-yl)-1-ethyl-propyl]-1H-indol-7-yl}-methanesulfonamide], the melting point is 260 to 263 °C (dec.). At human MR, this compound registered a Ki of less than 500 nM. In data set [1], this compound showed an inhibition constant (Ki) of less than 500 nM.

For the compound `CCC(CC)(c1ccc2ncoc2c1)c1c[nH]c2c(NS(C)(=O)=O)cccc12` [Example 137, N-[3-(1-Benzooxazol-6-yl-1-ethyl-propyl)-1H-indol-7-yl]-methanesulfonamide], the melting point is 211 to 213 °C. Further, the Ki at human MR was less than 500 nM. Further, the Ki in data set [1] is less than 500 nM.

In the case of `CCC(CC)(c1ccc2ccn(C(C)=O)c2c1)c1c[nH]c2c(NS(C)(=O)=O)cccc12` [Example 158, N-{3-[1-(1-Acetyl-1H-indol-6-yl)-1-ethyl-propyl]-1H-indol-7-yl}-methanesulfonamide], the melting point lay in the range of 216 to 218 °C. Moreover, the Ki in data set [1] is less than 500 nM.

Regarding `CCC(CC)(c1ccc2ccsc2c1)c1c[nH]c2c(NS(C)(=O)=O)cccc12` [Example 139, N-[3-(1-Benzo[b]thiophen-6-yl-1-ethyl-propyl)-1H-indol-7-yl]-methanesulfonamide], the melting point lay in the range of 97 to 107 °C. The same compound displayed a Ki on human MR of less than 500 nM. In data set [1], the Ki was less than 500 nM.

As to `CCC(CC)(c1ccc(F)cc1F)c1c[nH]c2c(NS(C)(=O)=O)cccc12` [Example 62, N-{3-[1-(2,4-Difluoro-phenyl)-1-ethyl-propyl]-1H-indol-7-yl}-methanesulfonamide], the melting point lay within 144 to 147 °C. The compound also had an inhibitory constant (Ki) on human MR of less than 500 nM. In addition, the Ki at glucocorticoid receptor was less than 500 nM.

Turning to `CCC(CC)(c1ccc2nc(NC(C)=O)sc2c1)c1c[nH]c2c(NS(C)(=O)=O)cccc12` [Example 147, N-{6-[1-Ethyl-1-(7-methanesulfonylamino-1H-indol-3-yl)-propyl]-benzothiazol-2-yl}-acetamide], the melting point is 286 to 288 °C. On human MR, this compound yielded a Ki of less than 500 nM. In addition, the Ki in data set [1] was less than 500 nM.

`CCC(CC)(c1ccc2[nH]nnc2c1)c1c[nH]c2c(NS(C)(=O)=O)cccc12` [Example 153, N-{3-[1-(3H-Benzotriazol-5-yl)-1-ethyl-propyl]-1H-indol-7-yl}-methanesulfonamide] yielded a melting point of 165 to 172 °C. For the same compound, the inhibition constant (Ki) on human MR is less than 500 nM. In data set [1], this compound came in with a Ki of less than 500 nM.

The values are drawn from US20060235222A1, “Indole-derivative modulators of steroid hormone nuclear receptors” (ELI LILLY AND COMPANY, priority 2003, published 2006).
